The source of these data is publication PMC10975178, “Evaluation on the Potential for Hepatotoxic Components from Herba Epimedii to Induce Apoptosis in HepG2 Cells and the Analysis of the Influence of Metabolism in Liver Microsomes” (Molecules, 2024).

In general, CLint scaled refers to the rate of metabolic loss divided by the concentration. Low values mean greater metabolic stability, high ones faster metabolism.

In one data set the test system is caspase-9. Briefly: Western blot, caspase-9 expression in HepG2 cells. In kind it is cell-based. The note with it: 24 h, high concentration (sagittatoside A 49, icariside I 50, baohuoside I 32, icaritin 3.8 μg/mL), vs untreated cells. How it is done: To explore the mechanism of apoptosis induced by the hepatotoxic compounds, the expression of key proteins related to apoptosis, including Bax, Bcl-2, Caspase-3 and Caspase-9, was assessed by western blotting. HepG2 cells were treated with different concentrations of the hepatotoxic compounds for 24 h and collected with a cell scraper. The concentrations of sagittatoside A were set to 12.2, 24.5, and 49 μg/mL; those of icariside I were 12.5, 25, and 50 μg/mL; baohuoside I was used at 8, 16, and 32 μg/mL; and icaritin was tested at 0.9, 1.9 and 3.8 μg/mL. The cells were washed twice with PBS and lysed in total protein cell lysis buffer. Protein concentrations were determined using a BCA protein assay kit (Thermo Fisher Scientific, Waltham, MA, USA). Then, to destroy the 3-dimensional protein structure, the proteins in the loading buffer were heated at 95 °C for 5 min. An equal amount of protein from each sample was separated by SDS-PAGE on 10% SDS–polyacrylamide gels. After the protein was transferred to a polyvinylidene difluoride membrane (Millipore, Bedford, MA, USA), the membrane was incubated in blocking buffer (5% nonfat dairy milk in TBST) for 2 h and probed with various antibodies (1:1000) overnight at 4 °C. The membrane was then probed with a secondary antibody (1:5000) for 2 h at room temperature, and detection was performed with an enhanced chemiluminescence kit (Millipore, Bedford, MA, USA). β-Actin was used as the control to confirm equal loading. Densitometry index analysis of the bands was conducted using a gel imagery system. The changes in the protein expression levels are expressed as percentages relative to the levels measured in the corresponding control groups.
On the technique in general: A western blot detects proteins with antibodies after separation by electrophoresis.

A further data set in a line: in vitro. In kind it is in vitro ADME, mice. The note with it: mouse, microsomes; for amount remaining: 1 h, 5 μM.
Data set [1] is classed as in vitro ADME, SD rats. The following applies: SD, rat, microsomes, 1 h, 5 μM.
Data set [2] is classed as in vitro ADME, humans. The note with it: human, microsomes, 5 μM; for amount remaining: 1 h; for final amount remaining: 60 min. The procedure: The incubation mixtures were prepared following the instructions from the manufacturer of the metabolic stability kits and contained sagittatoside A, icariside I, baohuoside I, and icaritin, of which the final concentrations were 49, 50, 32 and 3.8 μg/mL. The final concentration of organic solvents in the incubation mixture was 1% (v/v). After preincubation for 5 min at 37 °C, metabolic reactions of phase I and II were both initiated by the addition of human liver microsomes (final concentration, 0.20 mg protein/mL). Phase I metabolism is mediated by the enzyme cytochrome P450 (CYP), and phase II metabolism is mediated by UDP-glucuronosyltransferase (UGT). The whole reaction process was performed under aerobic conditions. After 30 min, an equal volume of cold acetonitrile was added and vortexed for 1 min to terminate the reactions. Subsequently, 200 μL of the resulting solution was centrifuged at 3000 rpm and 4 °C for 10 min. Then, 100 μL of supernatant was dried at 40 °C with nitrogen gas, and the residue was redissolved in 100 μL with fresh medium to prepare for treating cells. Negative controls (incubation without substrate) were prepared in the same manner.
The incubation mixtures were also prepared following Section 2.4 and contained sagittatoside A, icariside I, baohuoside I, and icaritin, of which the final concentrations were 5.00 μM. After the mixtures were incubated separately in phase I or phase II metabolism systems for 5, 10, 15, 20, 30, 45 and 60 min, the reactions were terminated by adding an equal volume of cold acetonitrile (with 7 μM IS) and vortex mixing for 1 min. Subsequently, 200 μL of the resulting solution was centrifuged at 3000 rpm and 4 °C for 10 min. Then, 100 μL of supernatant was dried at 40 °C with nitrogen gas, and the residue was redissolved in 100 μL of 50% methanol to prepare the samples for HPLC–MS/MS detection. Time zero samples (prepared by first adding cold acetonitrile and then adding NADPH for phase I metabolism or NADPH and UDPGA for phase II metabolism) and negative controls (incubation without substrate) were prepared separately in the same manner.
HPLC analysis was performed on an AB Sciex ExionLC HPLC system (Santa Clara, CA, USA) equipped with an autosampler, a vacuum degasser unit, a quaternary pump, a diode array detector (DAD) and a column compartment. Samples were separated on an ACQUITY ΜPLC BEH C18 column (2.1 × 100 mm, 1.7 μm) connected to an ACQUITY ΜPLC BEH C18 precolumn (2.1 × 5 mm, 1.7 μm) at 40 °C. The mobile phases were water with 0.05% formic acid (A) and methanol-acetonitrile (v/v 1:1) with 0.05% formic acid (B), and the elution gradient was as follows: 70% A (0.00–1.00 min), 2% A (2.50–3.50 min), and 70% A (3.51–7.00 min). The flow rate was set at 0.23 mL/min, and the injection volume was 5 μL.
Electrospray ionization–mass spectrometry (ESI–MS) analyses were performed on an AB Sciex QTRAP 5500 (EG250911902) mass spectrometer (Santa Clara, CA, USA). Detection was performed with multiple reaction monitoring (MRM) in ESI negative ion mode. The spray voltage was set to −4500 V, the curtain gas was 25 psi, the collision gas was set to medium, both auxiliary gases 1 and 2 were used at 45 psi, and the heating temperature was 550 °C.
In accordance with the above HPLC–MS/MS analysis method, the content of each compound in the sample at each time point was measured. Then, using the substrate depletion method, the content of each compound in the time zero sample was set as 100%, and the percent residual substrate was calculated. The relationship between the natural logarithmic value of the percent residual substrate and time point was explored by linear regression using GraphPad Prism 5.0 software, and the slope (−k) was obtained. […]

Where two headings read alike, the source gives them in different places.

On to `COc1ccc(-c2oc3c(CC=C(C)C)c(O)cc(O)c3c(=O)c2O[C@@H]2O[C@@H](C)[C@H](O)[C@@H](O)[C@H]2O)cc1` [baohuoside I], for which, in the data set with caspase-9, the caspase-9 expression entry is “significant increase”. For the same compound, the amount remaining in “in vitro” is 28.58 ± 4.12%; in data set [1], 8.52 ± 0.15%; in data set [2], 20.74 ± 0.39%. The compound further came in with a final amount remaining in data set [2] of 5.56 ± 0.60%.

Consider `COc1ccc(-c2oc3c(CC=C(C)C)c(O[C@@H]4O[C@H](CO)[C@@H](O)[C@H](O)[C@H]4O)cc(O)c3c(=O)c2O)cc1` [icariside I], for which the caspase-9 expression result in the data set on caspase-9 is reported as “significant increase”. The compound also displayed a CLint scaled at 5 μM in the data set “in vitro” of 80.4 mL/min/kg. Also, the amount remaining in the data set “in vitro” came to 7.69 ± 1.17%; in data set [1], 2.38 ± 0.32%; in data set [2], 10.08 ± 0.43%. Further, in data set [2], the final amount remaining was found to be 45.62 ± 1.52%.

As to `COc1ccc(-c2oc3c(CC=C(C)C)c(O)cc(O)c3c(=O)c2O)cc1` [icaritin], the caspase-9 expression entry with caspase-9 is “significant increase”. Also, the values for the amount remaining (in “in vitro”; in data set [1]; in data set [2]) were 28.55 ± 0.04%, 48.95 ± 4.13% and 36.23 ± 1.12%, respectively. Also, the final amount remaining in data set [2] is 20.51 ± 0.97%.
